# Experimental data as given in ChEMBL document CHEMBL1157164, “Computational analysis of the binding affinities of the natural-product cyclopentapeptides argifin and argadin to chitinase B from Serratia marcescens” (Bioorg Med Chem, 2008).
# Assays:
# [1] = Inhibition of Lucilia cuprina chitinase B
# Chitinase B = target: T1, Chitinase B (Serratia marcescens, UniProt P11797); assay: Binding affinity to Serratia marcescens chitinase B
# T1 sequence (P11797 whole entry): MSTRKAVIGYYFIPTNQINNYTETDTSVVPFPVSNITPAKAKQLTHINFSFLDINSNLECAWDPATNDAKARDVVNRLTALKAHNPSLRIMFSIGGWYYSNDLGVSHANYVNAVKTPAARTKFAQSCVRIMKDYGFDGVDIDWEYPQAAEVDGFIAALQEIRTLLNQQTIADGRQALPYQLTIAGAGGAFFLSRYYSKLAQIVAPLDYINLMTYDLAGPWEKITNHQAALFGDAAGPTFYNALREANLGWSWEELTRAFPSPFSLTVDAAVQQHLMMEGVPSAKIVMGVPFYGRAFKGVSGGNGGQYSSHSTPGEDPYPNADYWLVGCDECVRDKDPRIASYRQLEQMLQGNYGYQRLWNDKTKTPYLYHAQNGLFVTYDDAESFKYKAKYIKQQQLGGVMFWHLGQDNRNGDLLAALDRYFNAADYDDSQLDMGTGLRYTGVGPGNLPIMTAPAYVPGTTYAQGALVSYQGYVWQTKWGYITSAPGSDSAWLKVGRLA
SMILES,Ki [1] [µM],IC50 (Chitinase B) [nM]
CC(=O)NC(=N)NCCC[C@@H]1NC(=O)[C@H](CCCC(=O)O)NC(=O)[C@H](Cc2c[nH]cn2)N2C(=O)[C@H](C[C@H]2O)NC(=O)[C@H]2CCCN2C1=O [ARGADIN],0.02,3.4
CNC(=O)NC(=N)NCCC[C@@H]1NC(=O)[C@@H](C)NC(=O)C[C@@H](C(=O)O)NC(=O)C[C@@H](C(=O)O)NC(=O)[C@H](Cc2ccccc2)N(C)C1=O [ARGIFIN],33,100
